Values after ≈ are worked out from the molar mass of the structure shown.
Experiments:
[1] = tested on: Staph. aureus SS 10; type: cell-based; settings: Brain Heart Infusion, estolate and RV11-RV15 previously hydrolized, unit assumed
[2] = tested on: S. heidelberg SS 18; type: cell-based; settings: Brain Heart Infusion, estolate and RV11-RV15 previously hydrolized, unit assumed
[3] = tested on: H. pertussis SS 03; type: cell-based; settings: Brain Heart Infusion, estolate and RV11-RV15 previously hydrolized, unit assumed
[4] = tested on: Staph. albus SS 03; type: cell-based; settings: Brain Heart Infusion, estolate and RV11-RV15 previously hydrolized, unit assumed
[5] = tested on: B. subtilis SS 127; type: cell-based; settings: Brain Heart Infusion, estolate and RV11-RV15 previously hydrolized, unit assumed
[6] = tested on: E. coli SS 04; type: cell-based; settings: Brain Heart Infusion, estolate and RV11-RV15 previously hydrolized, unit assumed
[7] = tested on: Citrobacter SS 09; type: cell-based; settings: Brain Heart Infusion, estolate and RV11-RV15 previously hydrolized, unit assumed
[8] = Hematic levels in the rat (absorption by oral route); settings: 100 mg/kg as erythromycin, average, 100 mg/kg
[9] = tested on: E. coli SS 07; type: cell-based; settings: Brain Heart Infusion, estolate and RV11-RV15 previously hydrolized, unit assumed
[10] = Acute toxicity; type: in vivo; settings: mouse, in vivo, po; os; mortality 10 days after treatment; mice; read-out: LD50 (reliability limits)
Experimental: The acute toxicity was assessed in Swiss white mice by oral and intravenous route. The LD50 values have been calculated by the methods of Probits, starting from the mortality recorded 10 days after the treatment.

[11] = tested on: H. tubercolosis SS 03; type: cell-based; settings: Brain Heart Infusion, estolate and RV11-RV15 previously hydrolized, unit assumed
Excerpt: (§1) In the following table I the MIC/ml values are indicated corresponding to the lowest concentration capable of inducing a complete inhibition of the bacterial development.

[12] = tested on: Kl. pneumoniae SS 04; type: cell-based; settings: Brain Heart Infusion, estolate and RV11-RV15 previously hydrolized, unit assumed
Excerpt: as §1

[13] = tested on: Ps. aeruginosa SS 10; type: cell-based; settings: Brain Heart Infusion, estolate and RV11-RV15 previously hydrolized, unit assumed
[14] = tested on: N. gonorreae SS 27; type: cell-based; settings: Brain Heart Infusion, estolate and RV11-RV15 previously hydrolized, unit assumed
[15] = tested on: Pr. vulgaris SS 10; type: cell-based; settings: Brain Heart Infusion, estolate and RV11-RV15 previously hydrolized, unit assumed
[16] = tested on: Kl. aerogenes SS 71; type: cell-based; settings: Brain Heart Infusion, estolate and RV11-RV15 previously hydrolized, unit assumed
[17] = tested on: N. meningitidis SS 04; type: cell-based; settings: Brain Heart Infusion, estolate and RV11-RV15 previously hydrolized, unit assumed
[18] = tested on: Staph. albus SS 04; type: cell-based; settings: Brain Heart Infusion, estolate and RV11-RV15 previously hydrolized, unit assumed
[19] = tested on: Strept. haemolyticus SS 18; type: cell-based; settings: Brain Heart Infusion, estolate and RV11-RV15 previously hydrolized, unit assumed
[20] = tested on: Strept. haemolyticus SS 17; type: cell-based; settings: Brain Heart Infusion, estolate and RV11-RV15 previously hydrolized, unit assumed
[21] = tested on: B. subtilis ATCC 6633; type: cell-based; settings: Brain Heart Infusion, estolate and RV11-RV15 previously hydrolized, unit assumed
[22] = tested on: Citrobacter SS 05; type: cell-based; settings: Brain Heart Infusion, estolate and RV11-RV15 previously hydrolized, unit assumed
[23] = tested on: B. cereus ATCC 11778; type: cell-based; settings: Brain Heart Infusion, estolate and RV11-RV15 previously hydrolized, unit assumed
[24] = tested on: B. anthranis SS 08; type: cell-based; settings: Brain Heart Infusion, estolate and RV11-RV15 previously hydrolized, unit assumed
[25] = tested on: Staph. aureus SS 09; type: cell-based; settings: Brain Heart Infusion, estolate and RV11-RV15 previously hydrolized, unit assumed
[26] = tested on: C. diphtheriae SS 19; type: cell-based; settings: Brain Heart Infusion, estolate and RV11-RV15 previously hydrolized, unit assumed
[27] = tested on: Pr. mirabilis SS 09; type: cell-based; settings: Brain Heart Infusion, estolate and RV11-RV15 previously hydrolized, unit assumed
[28] = tested on: E. coli SS 06; type: cell-based; settings: Brain Heart Infusion, estolate and RV11-RV15 previously hydrolized, unit assumed
[29] = tested on: Staph. aureus SS 07; type: cell-based; settings: Brain Heart Infusion, estolate and RV11-RV15 previously hydrolized, unit assumed
[30] = tested on: E. aerogenes SS 011; type: cell-based; settings: Brain Heart Infusion, estolate and RV11-RV15 previously hydrolized, unit assumed
[31] = tested on: Sr. marcescens SS 03; type: cell-based; settings: Brain Heart Infusion, estolate and RV11-RV15 previously hydrolized, unit assumed
[32] = tested on: E. coli SS 05; type: cell-based; settings: Brain Heart Infusion, estolate and RV11-RV15 previously hydrolized, unit assumed
[33] = tested on: S. infantis SS 08; type: cell-based; settings: Brain Heart Infusion, estolate and RV11-RV15 previously hydrolized, unit assumed
[34] = tested on: D. pneumoniae SS 23; type: cell-based; settings: Brain Heart Infusion, estolate and RV11-RV15 previously hydrolized, unit assumed
[35] = tested on: E. cloacae SS 07; type: cell-based; settings: Brain Heart Infusion, estolate and RV11-RV15 previously hydrolized, unit assumed
[36] = tested on: Cl. tetani SS 17; type: cell-based; settings: Brain Heart Infusion, estolate and RV11-RV15 previously hydrolized, unit assumed
[37] = tested on: Staph. aureus SS 07; assay: Experimental infection induced by Staph. aureus SS 07; type: in vivo, Swiss white mice; settings: Staphylococcus aureus, SS07, in Mus musculus, po, 168 h, os; Staph. aureus SS 07; mg/kg of erythromycin; survival after 7 days; read-out: ED50 (reliability limits)
Experimental: (§2) Swiss white mice of 20 g body weight were used, infected by parenteral administration of lethal amounts of pathogenic […] of Staph. aureus SS 07 and D. pneumoniae SS 23.
(§3) The antibiotics were administered at the time of injecting the infecting germ and 6 and 24 hours later. On the basis of the survival after 7 days, the ED50 values were determined, as reported in the following table II and III, wherein the reliability limits are indicated in brackets.

[38] = tested on: B. anthranis SS 09; type: cell-based; settings: B. anthranis SS 09 (14 bis); Brain Heart Infusion; estolate and RV11-RV15 previously hydrolized; unit assumed
[39] = tested on: D. pneumoniae SS 23; assay: Experimental infection induced by D. pneumoniae SS 23; type: in vivo, Swiss white mice; settings: Streptococcus pneumoniae, SS23, in Mus musculus, po, 168 h, os; D. pneumoniae SS 23; mg/kg of erythromycin; survival after 7 days; read-out: ED50 (reliability limits)
Experimental: as §2, §3

[40] = tested on: C. albicans SS 04; type: cell-based; settings: Brain Heart Infusion, estolate and RV11-RV15 previously hydrolized, unit assumed
[41] = tested on: Br. melitensis SS 19; type: cell-based; settings: unit assumed
[42] = tested on: S. lutea ATCC 9341; type: cell-based; settings: Brain Heart Infusion, estolate and RV11-RV15 previously hydrolized, unit assumed
[43] = tested on: H. influentiae SS 02; type: cell-based; settings: Brain Heart Infusion, estolate and RV11-RV15 previously hydrolized, unit assumed
[44] = tested on: Br. abortus SS 7; type: cell-based; settings: Brain Heart Infusion, estolate and RV11-RV15 previously hydrolized, unit assumed
[45] = tested on: Staph. aureus SS 08; type: cell-based; settings: Brain Heart Infusion, estolate and RV11-RV15 previously hydrolized, unit assumed
[46] = tested on: Strept. faecalis SS 19; type: cell-based; settings: Brain Heart Infusion, estolate and RV11-RV15 previously hydrolized, unit assumed

Structure (SMILES): CC[C@H]1OC(=O)[C@H](C)[C@@H](O[C@H]2C[C@@](C)(OC)[C@@H](O)[C@H](C)O2)[C@H](C)[C@@H](O[C@@H]2O[C@H](C)C[C@H](N(C)C)[C@H]2O)[C@](C)(O)C[C@@H](C)C(=O)[C@H](C)[C@@H](O)[C@]1(C)O [erythromycin]
- MIC [1]: 0.1 µg/mL (≈ 0.136 µM)
- MIC [2]: 100 µg/mL (≈ 136 µM)
- MIC [3]: 0.4 µg/mL (≈ 0.545 µM)
- MIC [4]: 0.05 µg/mL (≈ 0.0681 µM)
- MIC [5]: 0.05 µg/mL (≈ 0.0681 µM)
- MIC [6]: 100 µg/mL (≈ 136 µM)
- MIC [7]: > 200 µg/mL
- Hematic levels in the rat ([8]; 2 hours, 120 min): 1.15 µg/mL
- Hematic levels in the rat ([8]; 6 hours, 360 min): 0.03 µg/mL
- concentration at 0.3 h ([8]; rat, blood, po, Hematic levels in the rat, 0.30 hours): 710 ng/mL
- concentration at 1 h ([8]; rat, blood, po, Hematic levels in the rat, 1 hour): 1030 ng/mL
- concentration at 3 h ([8]; rat, blood, po, Hematic levels in the rat, 3 hours): 1050 ng/mL
- concentration at 4 h ([8]; rat, blood, po, Hematic levels in the rat, 4 hours): 370 ng/mL
- concentration at 5 h ([8]; rat, blood, po, Hematic levels in the rat, 5 hours): 260 ng/mL
- MIC [9]: 50 µg/mL (≈ 68.1 µM)
- LD50 at 240 h [10]: > 3000 mg/kg
- MIC [11]: 50 µg/mL (≈ 68.1 µM)
- MIC [12]: 100 µg/mL (≈ 136 µM)
- MIC [13]: 100 µg/mL (≈ 136 µM)
- MIC [14]: 0.8 µg/mL (≈ 1.09 µM)
- MIC [15]: > 200 µg/mL
- MIC [16]: 50 µg/mL (≈ 68.1 µM)
- MIC [17]: 0.8 µg/mL (≈ 1.09 µM)
- MIC [18]: 0.05 µg/mL (≈ 0.0681 µM)
- MIC [19]: 1.5 µg/mL (≈ 2.04 µM)
- MIC [20]: 3 µg/mL (≈ 4.09 µM)
- MIC [21]: 0.025 µg/mL (≈ 0.0341 µM)
- MIC [22]: > 200 µg/mL
- MIC [23]: 0.4 µg/mL (≈ 0.545 µM)
- MIC [24]: 0.4 µg/mL (≈ 0.545 µM)
- MIC [25]: 0.1 µg/mL (≈ 0.136 µM)
- MIC [26]: 0.01 µg/mL (≈ 0.0136 µM)
- MIC [27]: > 200 µg/mL
- MIC [28]: 100 µg/mL (≈ 136 µM)
- MIC [29]: 0.025 µg/mL (≈ 0.0341 µM)
- MIC [30]: 100 µg/mL (≈ 136 µM)
- MIC [31]: 200 µg/mL (≈ 273 µM)
- MIC [32]: 50 µg/mL (≈ 68.1 µM)
- MIC [33]: 100 µg/mL (≈ 136 µM)
- MIC [34]: 0.05 µg/mL (≈ 0.0681 µM)
- MIC [35]: > 200 µg/mL
- MIC [36]: 0.4 µg/mL (≈ 0.545 µM)
- ED50 [37]: 2.09 mg/kg
- MIC [38]: 0.4 µg/mL (≈ 0.545 µM)
- ED50 [39]: 114 mg/kg
- MIC [40]: 100 µg/mL (≈ 136 µM)
- MIC [41]: 3 µg/mL (≈ 4.09 µM)
- MIC [42]: 0.01 µg/mL (≈ 0.0136 µM)
- MIC [43]: 1.5 µg/mL (≈ 2.04 µM)
- MIC [44]: 12 µg/mL (≈ 16.4 µM)
- MIC [45]: 0.025 µg/mL (≈ 0.0341 µM)
- MIC [46]: 0.1 µg/mL (≈ 0.136 µM)
